# According to US20240393292A1, “ALLERGY ANTIGEN AND EPITOPE THEREOF” (HOYU CO., LTD., priority 2019, published 2024):
# Tested on: IgE antibody in the serum of a wheat-allergic patient
# Assay: Immunoblotting of two-dimensional electrophoresis pattern of wheat proteins with patient serum
# Type: binding, human
# Settings: immunoblot of 2D electrophoresis; compared with serum of non-wheat-allergic subject
# Method: Identification of antigens by immunoblotting was carried out by taking all the steps up to the step of “Second-dimensional SDS-PAGE” as described above in Example 1, followed by the steps of “Transfer to membrane”, “Immunoblotting” and “Analysis” as described below.
# Transfer to membrane was done using the following transfer system and transfer buffer. • Transfer system: XCell SureLock Mini-Cell and XCell II Blot Module (produced by Life Technologies) • Transfer buffer: NuPAGE Transfer Buffer (×20) (produced by Life Technologies), used in a form diluted […] with milliQ water. […]
# The immunoblots obtained with the serum from the wheat-allergic patient were compared with those obtained with the control serum from the non-wheat-allergic subject. For protein present in wheat, in immunoblotting using the serum from the wheat-allergic patient, 16 spots were detected (FIG. 2), which are different from the spots detected when the serum of the non-wheat-allergic subject was used and different from those of the known wheat allergen proteins. […]
row,specific binding of IgE antibody in serum of wheat-allergic patient to protein spot,Molecule
1,binding to IgE antibodies was confirmed,"Gamma-gliadin (protein, listed as Triticum aestivum, posttranslational modification, same protein as spot 16, differing posttranslational modification) MKIFMVFALLVASTTITTATAQLDPRIHDQERPQQSFLQQQPLIQQQPYPPQEPQQPLFPQKEPQQPFPLQQPQYQQQQPYPQQPLPQEQLPQQHLFPQQPPQQQFPQQMPLPHQQQTFPQQQQQQQQQEQLPQQLPQFPQQQPFSQYQQPLTQQPYSQEQPLPQQQPSVEEKQQLNLCKEFLLQQCNPEEKLSLLQSVIPFLRPKTSQQNSCQLKRLQCCRQLAHISEPSRCPAIHNIVHAIVMQQQHVDRGFGQPQPQQLGQEMPMQPQHQLGQHSILPQQLAQYKLVRLLVIQTLPMLCNVHVPSDCYTITAPFGSMTAYNGGQ"
2,binding to IgE antibodies was confirmed,"Globulin 3 (protein, listed as Triticum aestivum, posttranslational modification, same protein as spot 12, differing posttranslational modification) MATRARVTIPLLFLLGTSLLFAAAVSASHDEEEDRRGGRSLQQCVQRCQQDRPRYSHARCVQECRDDQQQHGRHEQEEQGRGHGRHGEGEREEEQGRGRGRHGQGEREEEQGRGRGRRGEGERDEEHGDGRRPYVFGPRSFRRIIRSDHGFVKALRPFDEVSRLLRGIRNYRVAIMEVNPRAFVVPGLTDADGVGYVAQGEGVLTVIENGEKRSYTVRQGDVIVAPAGSIMHLANTDGRRKLVIAKILHTISVPGKFQYFSAKPLLASLSKRVLTAALKTSDERLGSLLGSRQGKEEEEKSISIVRASEEQLRELRRQASEGDQGHHWPLPPFRGDSRDTFNLLEQRPKIANRHGRLYEADARSFHALAQHDVRVAVANITPGSMTAPYLNTQSFKLAVVLEGEGEVEIVCPHLGRDSERREQEHGKGRWRSEEEEDDRRQQRRRGSGSESEEEQDQQRYETVRARVSRGSAFVVPPGHPVVEIASSRGSSNLQVVCFEINAERNERVWLAGRNNVIAKLDDPAQELTFGRPAREVQEVFRAKDQQDEGFVAGPEQQQEHERGDRRRGDRGRGDEAVEAFLRMATAAL"

# Tested on: IgE antibodies from patients
# Assay: Wheat epitope mapping (3): alanine/glycine scanning
# Type: binding, human
# Settings: from analysis of epitope mapping (A) to (C); many samples
# Method: From the amino acid sequences identified above in (A), a library of peptide fragments in which amino-terminal amino acids were substituted one by one by alanine (or glycine when the original amino acid was alanine) according to a technique called alanine/glycine scanning (Non Patent Literature 5) was prepared by the same technique as described above. The presence or absence of binding of an IgE antibody present in the serum of a patient to each peptide fragment was measured by the same technique as described above.
# Chemiluminescence intensity in images obtained by measurement was converted into a numeric value in the same manner as in (A). Numeric values determined from images obtained from secondary antibody measurement values were used as control values. The control value of each peptide was subtracted from numeric values determined from images obtained from results about the serum of 49 patients. When values obtained using the sequences (SEQ ID NOs: 29, 131, 191, 281, 346, 414, 493, 562, 640, 706, 776, 899, 974, 1010, 1089, 1142, 1166, 1209, 1257, 1297, 1367, 1403, 1508, 1566, 1598, 1608, 1685, 1753, 1789, 1836, 1895, 1977, 2004, 2027, 2068, 2154, 2217, 2265, 2309, 2342, 2419, 2491, 2545, 2613, 2631, 2674, 2701, 2774, 2809 and 2830) serving as the basis of alanine/glycine scanning were defined as 100%, it was determined that: a peptide having a value of the difference that was less than 30% had no binding activity against IgE antibodies; a peptide having a value of the difference that was 30% or more and less than 50% had binding activity, albeit poor, against IgE antibodies; a peptide having a value of the difference that was 50% or more and less than 70% had binding activity, albeit somewhat poor, against IgE antibodies; and a peptide having a value of the difference that was 70% or more had equivalent or good binding activity against IgE antibodies and was thus a peptide had remaining binding activity against IgE antibodies.
# By analysis of the results of (A) to (C), common sequences important for exertion of original antigenicity were found in regions important for binding to IgE antibodies from patients, in the sequences serving as the basis of alanine/glycine scanning.
row,Molecule,short polypeptide confirmed as epitope binding to IgE antibodies
1,"SEQ ID NO: 61: polypeptide consisting of 4 amino acid residues, among sequences of (E1) (QPIQ; REGION 1..4: note = epitope)",confirmed as epitopes binding to IgE antibodies in many samples
2,QPIQ (REGION 1..4: note = epitope) [SEQ ID NO: 30],confirmed as epitopes binding to IgE antibodies in many samples
3,"SEQ ID NO: 222: polypeptide consisting of 4 amino acid residues, among sequences of (E3) (QQPF; REGION 1..4: note = epitope)",confirmed as epitopes binding to IgE antibodies in many samples
4,"SEQ ID NO: 58: polypeptide consisting of 4 amino acid residues, among sequences of (E1) (PIQQ; REGION 1..4: note = epitope)",confirmed as epitopes binding to IgE antibodies in many samples
5,"SEQ ID NO: 345: polypeptide consisting of 4 amino acid residues, among sequences of (E4) (QPFP; REGION 1..4: note = epitope)",confirmed as epitopes binding to IgE antibodies in many samples
6,"SEQ ID NO: 238: polypeptide consisting of 4 amino acid residues, among sequences of (E3) (PFPQ; REGION 1..4: note = epitope)",confirmed as epitopes binding to IgE antibodies in many samples
